Test results published in ChEMBL document CHEMBL4476867, “Hydroxy formamide derivatives and their use” (2016).

Legend:
[1] = molecular target: T1, Tolloid-like protein 2 (Homo sapiens, UniProt Q9Y6L7); experiment: Inhibition of C-terminal Avi-6x-His epitope tagged and N-terminal human RAGE signal sequence tagged recombinant human TLL2 (26 to 1015 amino acids) expressed in CHOE1A cells incubated for 60 mins with promyostatin peptide substrate by FRET based assay; format: cell-based
T1 sequence (Q9Y6L7 whole entry): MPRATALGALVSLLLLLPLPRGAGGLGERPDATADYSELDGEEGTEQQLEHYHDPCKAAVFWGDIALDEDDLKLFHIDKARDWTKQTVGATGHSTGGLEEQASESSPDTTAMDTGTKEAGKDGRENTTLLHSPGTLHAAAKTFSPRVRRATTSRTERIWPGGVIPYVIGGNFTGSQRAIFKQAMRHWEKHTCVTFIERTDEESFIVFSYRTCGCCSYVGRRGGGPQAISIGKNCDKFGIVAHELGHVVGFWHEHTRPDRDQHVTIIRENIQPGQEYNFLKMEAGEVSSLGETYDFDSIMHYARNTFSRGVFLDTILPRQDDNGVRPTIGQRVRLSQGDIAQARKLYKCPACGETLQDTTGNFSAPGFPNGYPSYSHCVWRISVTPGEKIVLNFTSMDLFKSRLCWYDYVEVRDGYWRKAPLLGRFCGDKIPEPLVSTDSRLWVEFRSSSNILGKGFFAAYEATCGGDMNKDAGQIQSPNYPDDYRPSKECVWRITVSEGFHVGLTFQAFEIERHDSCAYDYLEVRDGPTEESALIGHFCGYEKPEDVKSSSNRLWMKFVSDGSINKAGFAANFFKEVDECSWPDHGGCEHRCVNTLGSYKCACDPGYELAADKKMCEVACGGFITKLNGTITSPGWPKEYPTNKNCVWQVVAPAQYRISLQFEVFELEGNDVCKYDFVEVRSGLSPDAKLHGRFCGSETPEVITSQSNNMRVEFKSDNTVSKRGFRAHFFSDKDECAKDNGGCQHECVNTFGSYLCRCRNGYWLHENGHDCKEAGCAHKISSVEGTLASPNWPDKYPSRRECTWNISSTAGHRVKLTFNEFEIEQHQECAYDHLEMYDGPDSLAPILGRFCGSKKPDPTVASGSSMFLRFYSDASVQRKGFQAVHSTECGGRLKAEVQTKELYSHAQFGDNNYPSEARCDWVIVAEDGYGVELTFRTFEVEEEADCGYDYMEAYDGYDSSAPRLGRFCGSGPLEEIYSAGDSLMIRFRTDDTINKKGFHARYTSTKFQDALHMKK

[2] = molecular target: T2, Bone morphogenetic protein 1 (Homo sapiens, UniProt P13497); experiment: Inhibition of C-terminal FLAG-6x-His epitope tagged and N-terminal human RAGE signal sequence tagged human BMP1 (23 to 721 amino acids) expressed in CHO-E1 cells pre-incubated for 10 mins before promyostatin peptide substrate addition and measured after 60 mins using 0.5 nM BMP1 by FRET based assay; format: cell-based
T2 sequence (P13497 whole entry): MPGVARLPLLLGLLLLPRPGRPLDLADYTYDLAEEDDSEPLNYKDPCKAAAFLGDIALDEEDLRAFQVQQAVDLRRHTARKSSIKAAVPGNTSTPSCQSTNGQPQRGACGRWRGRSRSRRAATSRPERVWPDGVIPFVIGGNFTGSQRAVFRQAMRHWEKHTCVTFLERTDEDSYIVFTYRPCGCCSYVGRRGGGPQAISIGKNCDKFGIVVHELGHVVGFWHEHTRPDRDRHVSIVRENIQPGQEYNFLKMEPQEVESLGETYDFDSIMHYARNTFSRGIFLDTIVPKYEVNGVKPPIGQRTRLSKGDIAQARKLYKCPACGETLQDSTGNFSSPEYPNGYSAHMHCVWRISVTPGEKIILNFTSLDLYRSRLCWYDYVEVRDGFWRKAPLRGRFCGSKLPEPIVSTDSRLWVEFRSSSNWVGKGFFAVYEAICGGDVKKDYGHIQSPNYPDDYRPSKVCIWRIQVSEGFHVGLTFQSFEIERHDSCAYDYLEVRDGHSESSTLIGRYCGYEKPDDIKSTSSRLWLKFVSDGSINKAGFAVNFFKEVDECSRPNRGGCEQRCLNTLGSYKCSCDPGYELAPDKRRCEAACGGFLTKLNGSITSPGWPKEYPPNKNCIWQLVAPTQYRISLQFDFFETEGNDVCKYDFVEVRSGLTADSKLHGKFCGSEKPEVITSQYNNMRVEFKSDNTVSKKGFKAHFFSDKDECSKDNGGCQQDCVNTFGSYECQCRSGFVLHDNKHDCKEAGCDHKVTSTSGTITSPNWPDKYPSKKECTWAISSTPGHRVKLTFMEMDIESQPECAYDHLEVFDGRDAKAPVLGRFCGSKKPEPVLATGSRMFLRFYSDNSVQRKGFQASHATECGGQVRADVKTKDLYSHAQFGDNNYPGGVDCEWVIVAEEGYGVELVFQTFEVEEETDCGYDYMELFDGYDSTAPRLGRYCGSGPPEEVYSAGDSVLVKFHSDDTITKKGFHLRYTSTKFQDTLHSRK

[3] = molecular target: Tolloid-like protein 1 (Homo sapiens, UniProt O43897, I156V/N221S/V284A); experiment: Inhibition of recombinant human TLL1 I156V/N221S/V284A mutant expressed in CHOE1A cells pre-incubated for 10 mins before promyostatin peptide substrate addition and measured after 60 mins by FRET based assay; format: cell-based
[4] = molecular target: T2, Bone morphogenetic protein 1; experiment: Inhibition of C-terminal FLAG-6x-His epitope tagged and N-terminal human RAGE signal sequence tagged human BMP1 (23 to 721 amino acids) expressed in CHO-E1 cells pre-incubated for 10 mins before promyostatin peptide substrate addition and measured after 30 mins using 50 nM BMP1 by FRET based assay; format: cell-based
[5] = Reduction in PICP levels in human cardiac fibroblasts incubated for 24 to 48 hrs by ELISA; format: functional
In short: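 Human cardiac fibroblasts at passage 6 or below were plated in 96-well plates at 10,000 to 15,000 cells per well. On the following day, cells were treated for 24 to 48 hr at 37° C in ficoll crowding EMEM containing 100 μM ascorbic acid, with DMSO kept under 0.3%. A Quidel ELISA measured procollagen I C-terminal propeptide released into the medium, and IC50 values were derived in GraphPad Prism by fitting levels, expressed relative to untreated controls, to a log(inhibitor)-response equation.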

Tolloid-like protein 1, sequence (O43897 148-1013 I156V/N221S/V284A limits assumed): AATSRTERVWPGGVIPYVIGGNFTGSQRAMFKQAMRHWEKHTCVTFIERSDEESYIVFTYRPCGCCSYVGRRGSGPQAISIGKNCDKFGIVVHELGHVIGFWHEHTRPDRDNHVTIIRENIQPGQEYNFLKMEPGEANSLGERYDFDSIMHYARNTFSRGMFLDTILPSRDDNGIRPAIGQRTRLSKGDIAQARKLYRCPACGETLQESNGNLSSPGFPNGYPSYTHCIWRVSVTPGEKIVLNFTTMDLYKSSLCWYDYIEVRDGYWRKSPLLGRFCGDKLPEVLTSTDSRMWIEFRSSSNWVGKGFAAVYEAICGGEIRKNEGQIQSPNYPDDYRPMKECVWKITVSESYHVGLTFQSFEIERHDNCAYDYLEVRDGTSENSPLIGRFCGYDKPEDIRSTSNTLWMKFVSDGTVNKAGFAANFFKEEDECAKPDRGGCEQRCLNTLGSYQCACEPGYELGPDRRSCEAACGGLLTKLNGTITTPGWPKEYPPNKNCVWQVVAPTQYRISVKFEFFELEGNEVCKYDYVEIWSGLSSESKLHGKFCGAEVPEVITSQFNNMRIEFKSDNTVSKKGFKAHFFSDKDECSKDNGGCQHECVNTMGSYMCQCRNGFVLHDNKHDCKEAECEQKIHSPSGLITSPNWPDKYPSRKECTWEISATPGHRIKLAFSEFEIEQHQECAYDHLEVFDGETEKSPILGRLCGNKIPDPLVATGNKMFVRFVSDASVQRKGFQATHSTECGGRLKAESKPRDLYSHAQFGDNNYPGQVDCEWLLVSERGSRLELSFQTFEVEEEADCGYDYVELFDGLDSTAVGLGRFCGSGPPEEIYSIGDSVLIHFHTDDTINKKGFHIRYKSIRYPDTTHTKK

Row | Compound | IC50 [1] [nM] | IC50 [2] [nM] | IC50 [3] [nM] | IC50 [4] [nM] | IC50 [5] [nM]
1 | CCCCC[C@H](CN(O)C=O)C(=O)NCNC(=O)c1ccc(-c2cccc(OCC)c2)o1 | < 794 | < 126 | < 398 | < 200 | < 3980
2 | CCCCC[C@@H](C(=O)NCNC(=O)c1ccc(-c2ccc(C(=O)O)c(OCC)c2)o1)[C@@H](CC)N(O)C=O | < 794 | < 126 | < 398 | < 200 | < 3980
3 | CCCCC[C@@H](C(=O)NCNC(=O)c1ccc(-c2ccc(CC(=O)O)c(OCC)c2)o1)[C@@H](CC)N(O)C=O | < 794 | < 126 | < 398 | < 200 | < 3980
4 | CCCCC[C@H](CN(O)C=O)C(=O)NCNC(=O)c1ccc(-c2cccc(OCC(F)(F)F)c2)o1 | < 794 | < 126 | < 398 | < 200 | < 3980
5 | CCCCC[C@@H](C(=O)NCNC(=O)c1ccc(-c2ccc(C3(C(=O)O)CC3)cc2)o1)[C@@H](CC)N(O)C=O | < 794 | < 126 | < 398 | < 200 | < 3980
6 | CCCCC[C@@H](C(=O)NCNC(=O)c1ccc(-c2ccc(C(C)(C)C(=O)O)cc2)o1)[C@@H](CC)N(O)C=O | < 794 | < 126 | < 398 | < 200 | < 3980
7 | CCCCC[C@H](CN(O)C=O)C(=O)NCNC(=O)c1ccc(-c2cccc(N(C)C)c2)o1 | < 794 | < 126 | < 398 | < 200 | < 3980
8 | CCCCC[C@@H](C(=O)NCNC(=O)c1ccc(-c2cc(CC(=O)O)cc(OCC)c2)o1)[C@@H](CC)N(O)C=O |  | < 126 |  | < 200 | < 3980
9 | CCCCC[C@@H](C(=O)NCNC(=O)c1ccc(-c2ccc(CC(=O)O)cc2)o1)[C@@H](CC)N(O)C=O | < 794 | < 126 | < 398 | < 200 | < 3980
10 | CCCCC[C@H](CN(O)C=O)C(=O)NCNC(=O)c1ccc(-c2cccc(OC(C)C)c2)o1 |  | < 126 | < 398 | < 200 | < 3980
11 | CCCCC[C@H](CN(O)C=O)C(=O)NCNC(=O)c1ccc(-c2cccc(OC(F)F)c2)o1 | < 794 | < 126 | < 398 | < 200 | < 3980
12 | CCCCC[C@@H](C(=O)NCNC(=O)c1ccc(-c2cc(OCC)cc(C(=O)NCC(=O)O)c2)o1)[C@@H](CC)N(O)C=O |  | < 126 |  | < 200 | < 3980
13 | CCCCC[C@H](CN(O)C=O)C(=O)NCNC(=O)c1ccc(-c2cc(OC)ccn2)o1 | < 794 | < 126 | < 398 | < 200 | < 3980
